Experimental findings from patent US20130029970A1 (priority 2009, published 2013) are described below.

Experiment [1] deals with CFA induced inflammatory pain in the rat. Description: Complete Freund's Adjuvant (CFA) induced inflammatory pain model. It is filed as in vivo. The procedure:
In this rat model of inflammatory pain, 100 uL of CFA diluted 1:1 with phosphate buffered saline was injected into the subplantar region of the right hind paw on Day 1. On day 3, test compounds were administered orally and rats were assessed for their reaction to a mechanical stimuli applied via an Analgesy® meter. Injection of CFA increased the rats' reactivity to painful stimuli and this was reflected in a decrease in the amount of pressure they could tolerate prior to withdrawing their paw from the apparatus (hyperalgesia). An anti-hyperalgesic activity of the test compound was denoted by an increase in the amount of pressure they can tolerate prior to withdrawing their paw from the apparatus. The mean±SEM for each treatment group was determined and a Dunnett test was applied for comparison between vehicle and treated groups. Differences were considered significant at P<0.05. (see Bertorelli et al. 1999 Brit Journ Pharmacol 128:1252).

Experiment [2] has as its system PBQ-induced writhing in the mouse. In words: Phenylbenzoquinone-induced (PBQ) writhing model. On the technique in general: An intraperitoneal irritant provokes the stretching counted in writhing tests.

Molecules are shown by their SMILES. Values joined by “and” are separate entries in the source; they are usually repeats but may differ in a detail not shown here. Equal values may be shown once.

With `COc1ccc(C(=O)c2cc3cc(C)n(CCN4CCCCC4)c3s2)cc1` [Compound I-78], the “Post CFA PWT (grams)” value in experiment [1] (60 mg/kg PO) worked out at 181.7 ± 22.3 grams.
Turning to `COc1ccc(C(=O)c2cc3cc(C)n(CCCNS(C)(=O)=O)c3s2)cn1` [Compound I-109], the “Number of Writhes” value was 13.3 ± 2.3 in experiment [2] (Dose 3, PO); 8.93 ± 2.28 in experiment [2] (Dose 10, PO); 5.78 ± 1.75 in experiment [2] (Dose 30, PO). For the same compound, the “Post CFA PWT (grams)” value in experiment [1] (60 mg/kg PO) was found to be 132 ± 12.3 grams.
`COc1ccc(C(=O)c2cc3cc(C)n(CCN4CCOCC4)c3s2)cn1` [Compound I-58]: the “Number of Writhes” value in experiment [2] (Dose 30, IP) was 1.1 ± 0.38; in experiment [2] (Dose 30, PO) it was 15.9 ± 2.7. In experiment [1] (60 mg/kg PO), the “Post CFA PWT (grams)” value is 170.3 ± 19.7 grams.
Consider `COc1ccc(C(=O)c2cc3cc(C)n(CCN4CCOCC4)c3s2)c(F)c1` [Compound I-68], for which the “Number of Writhes” value in experiment [2] (Dose 3, PO) was 9.6 ± 2.2; in experiment [2] (Dose 10, PO) it was 5.92 ± 1.55. In addition, in experiment [1] (60 mg/kg PO), the “Post CFA PWT (grams)” value came to 178.7 ± 24.4 grams.
`COc1ccc(C(=O)c2cc3cc(C)n(CCN4CCOCC4)c3s2)cc1` [Compound I-36]: the “Number of Writhes” value is recorded as 14.5 ± 1.59 in experiment [2] (Dose 3, PO); 12.1 ± 2.8 in experiment [2] (Dose 10, PO); 7.3 ± 2.5 in experiment [2] (Dose 30, PO). The “Post CFA PWT (grams)” value is given as 114.3 ± 11.8 grams in experiment [1] (3 mg/kg PO), 90.7 ± 10.4 grams in experiment [1] (10 mg/kg PO), 157.3 ± 11.4 grams in experiment [1] (30 mg/kg PO) and 191 ± 12.1 grams in experiment [1] (56 mg/kg PO).
Consider `COc1ccc(C(=O)c2cc3cc(C)n(CCN4CCOCC4)c3s2)c(Cl)c1` [Compound I-70], for which the “Number of Writhes” value in experiment [2] (Dose 30, PO) is on record as 3.2 ± 1.57. The “Post CFA PWT (grams)” value in experiment [1] (60 mg/kg PO) is given as 195.7 ± 16.4 grams.
`Cc1cc2cc(C(=O)c3ccc(Cl)cc3)sc2n1CCN1CCOCC1` [Compound I-6]: in experiment [2] (Dose 30, PO), the “Number of Writhes” value was 3.7 ± 0.7.
In the case of `CCOc1ccc(C(=O)c2cc3cc(C)n(CCCNS(C)(=O)=O)c3s2)c(F)c1` [Compound I-95], in experiment [1] (60 mg/kg PO), the “Post CFA PWT (grams)” value worked out at 111.7 ± 20.5 grams.
For `CCS(=O)(=O)n1c(C)cc2cc(C(=O)c3cccc(Cl)c3Cl)sc21` [Compound I-25], the “Number of Writhes” value in experiment [2] (Dose 30, IP) came out at 5.9 ± 2.46.
Regarding `Cc1cc2cc(C(=O)c3ccncn3)sc2n1CCN1CCOCC1` [Compound I-34], the “Number of Writhes” value in experiment [2] (Dose 30, IP) stood at 3.4 ± 0.97.
`CCOc1ccc(C(=O)c2cc3cc(C)n(CCN4CCOCC4)c3s2)c(F)c1` [Compound I-89]: the “Post CFA PWT (grams)” value in experiment [1] (60 mg/kg PO) is 178.7 ± 19.6 grams.
Consider `Cc1ccc(C(=O)c2cc3cc(C)n(CCN4CCOCC4)c3s2)cc1` [Compound I-124], for which, in experiment [1] (60 mg/kg PO), the “Post CFA PWT (grams)” value is on record as 196.7 ± 27.3 grams.
Turning to `COc1ccc(C(=O)c2cc3cc(C)n(CCCNS(C)(=O)=O)c3s2)c(F)c1` [Compound I-87], in experiment [2] (Dose 30, PO), the “Number of Writhes” value turned out to be 17.2 ± 2.5. For the same compound, in experiment [1] (60 mg/kg PO), the “Post CFA PWT (grams)” value was determined as 100.7 ± 11.3 grams.
As for `COc1ccc(C(=O)c2cc3cc(C)n(CCCNS(C)(=O)=O)c3s2)cc1` [Compound I-44], the “Number of Writhes” value was 13.9 ± 1.4 in experiment [2] (Dose 3, PO); 9.4 ± 2.6 in experiment [2] (Dose 10, PO); 8.25 ± 2.54 and 9.7 ± 1.7 in experiment [2] (Dose 30, PO). The “Post CFA PWT (grams)” value was determined as 164.4 ± 8.4 grams in experiment [1] (10 mg/kg PO), 153.7 ± 10.7 grams in experiment [1] (30 mg/kg PO) and 150 ± 13.8 grams in experiment [1] (56 mg/kg PO).
As to `Cc1cc2cc(C(=O)c3cccc(Cl)c3Cl)sc2n1S(=O)(=O)N(C)C` [Compound I-41], the “Number of Writhes” value in experiment [2] (Dose 30, IP) came to 5.91 ± 2.04.
For the compound `Cc1cc2cc(C(=O)c3ccc(OC(C)C)cc3)sc2n1CCN1CCOCC1` [Compound I-111], the “Post CFA PWT (grams)” value in experiment [1] (60 mg/kg PO) worked out at 140.7 ± 13.7 grams.
Turning to `Cc1cc2cc(C(=O)c3cccc(Cl)c3Cl)sc2n1CCN1CCOCC1` [Compound I-1], the “Number of Writhes” value in experiment [2] (Dose 30, IP) is 0.4 ± 0.31; in experiment [2] (Dose 30, PO) it was 7.5 ± 1.91.
